Earlier results as cited in patent publication US12564599B2, “Pharmaceutical composition comprising tetrahydrocannabivarin for the prevention and treatment of overweight” (CepVentures International Corporation, priority 2019, dated 2026).

Details: over a 6 month or a 1 year period

In the case of `CC(C)CC(N(C)C)C1(c2ccc(Cl)cc2)CCC1` (stereo not shown) [Sibutramine], the reduces body weight is listed as “about 10%”.
